One series addresses T1, human H3 receptor (Homo sapiens, UniProt Q9Y5N1).
T1 construct: expressed in transfected cells
Nature of the series: Human H3 radioligand binding ([3H]-N-alpha-methylhistamine, SPA). The conditions noted are these: membranes of CHO cells expressing human H3. In a few lines:
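Membranes from H3-expressing cells (10 μg protein/well) in 50 mM Tris HCl pH 7.4, 5 mM MgCl2, 0.1% BSA with ~1 nM [3H]-N-alpha-methylhistamine and compound (0.01 nM–30 μM), SPA beads, 4 h, room temperature, dark. Non-specific binding defined with 10 μM clobenpropit; bound radioligand read by scintillation counting.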

Series [1] deals with T2, rat histamine H3 receptor (Rattus norvegicus, UniProt Q9QYN8).
T2 construct: encoding the entire 445-amino-acid rat histamine H3 receptor; expressed in transfected cells
T2 sequence (Q9QYN8 whole entry): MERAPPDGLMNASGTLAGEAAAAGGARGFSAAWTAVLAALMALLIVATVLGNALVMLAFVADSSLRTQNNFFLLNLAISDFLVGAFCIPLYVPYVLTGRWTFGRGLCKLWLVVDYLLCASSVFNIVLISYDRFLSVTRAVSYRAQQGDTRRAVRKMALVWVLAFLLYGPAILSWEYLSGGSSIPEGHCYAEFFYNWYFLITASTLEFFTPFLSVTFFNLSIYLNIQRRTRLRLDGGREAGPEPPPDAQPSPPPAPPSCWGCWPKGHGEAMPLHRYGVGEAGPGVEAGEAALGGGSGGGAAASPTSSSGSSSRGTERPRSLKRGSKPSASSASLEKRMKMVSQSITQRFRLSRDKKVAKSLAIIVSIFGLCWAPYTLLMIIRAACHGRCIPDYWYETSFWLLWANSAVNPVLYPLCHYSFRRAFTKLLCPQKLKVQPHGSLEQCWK
Nature of the series: Rat H3 radioligand binding ([3H]-N-alpha-methylhistamine, SPA). Particulars: membranes of CHO-A3 cells expressing rat H3; [3H]-N-alpha-methylhistamine; read-out: Rat H3 Ki. A digest of the protocol:
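Membranes from CHO-A3 cells stably expressing full-length rat H3 receptor (445 aa) incubated with ~1 nM [3H]-N-alpha-methylhistamine and compound (0.01 nM–30 μM) in 50 mM Tris HCl pH 7.4, 5 mM MgCl2, 0.1% BSA, 4 h, room temperature; SPA bead read-out. Non-specific binding defined with 10 μM clobenpropit.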

T1 sequence (Q9Y5N1 whole entry): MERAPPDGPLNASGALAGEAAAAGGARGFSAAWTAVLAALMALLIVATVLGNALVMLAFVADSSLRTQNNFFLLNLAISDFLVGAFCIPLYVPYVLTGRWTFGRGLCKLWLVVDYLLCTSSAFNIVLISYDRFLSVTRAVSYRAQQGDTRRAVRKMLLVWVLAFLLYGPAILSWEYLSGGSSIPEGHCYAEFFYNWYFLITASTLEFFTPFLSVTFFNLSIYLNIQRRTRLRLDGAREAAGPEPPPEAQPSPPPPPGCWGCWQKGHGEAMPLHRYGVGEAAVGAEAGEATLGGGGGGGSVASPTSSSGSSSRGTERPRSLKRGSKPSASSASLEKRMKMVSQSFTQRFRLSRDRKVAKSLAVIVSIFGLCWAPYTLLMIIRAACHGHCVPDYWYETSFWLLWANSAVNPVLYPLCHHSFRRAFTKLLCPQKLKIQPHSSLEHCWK

A word on the melting point: it is the temperature of the solid-liquid transition. What is called Ki is the equilibrium dissociation constant of an inhibitor or competing ligand from its target. `C[C@@H]1CCCN1CCCOc1ccc(C(=O)CN2CCC(F)(F)C2)cc1F` [Example 139, 2-(3,3-Difluoro-pyrrolidin-1-yl)-1-{3-fluoro-4-[3-((R)-2-methyl-pyrrolidin-1-yl)-propoxy]-phenyl}-ethanone] registered a melting point of 206 °C. This molecule also showed a Ki at human H3 receptor of 0.0001 to 0.1 µM. In series [1], the Ki fell in the range of 0.0001 to 0.1 µM.
`C[C@@H]1CCCN1CCCOc1ccc(C(=O)CN2CCC(F)(F)CC2)cc1F` [Example 141, 2-(4,4-Difluoro-piperidin-1-yl)-1-{3-fluoro-4-[3-((R)-2-methyl-pyrrolidin-1-yl)-propoxy]-phenyl}-ethanone]: the melting point turned out to be 220 °C. On human H3 receptor, this molecule returned a Ki of 0.0001 to 0.1 µM. Besides, the Ki in series [1] lay within 0.101 to 0.5 µM.
In the same order, the values of `C[C@@H]1CCCN1CCCOc1ccc(C(=O)CN2CCN(c3ccccc3)CC2)cc1F` [Example 143, 1-{3-Fluoro-4-[3-((R)-2-methyl-pyrrolidin-1-yl)-propoxy]-phenyl}-2-(4-phenyl-piperazin-1-yl)-ethanone] are 140 °C, 0.0001 to 0.1 µM and 0.0001 to 0.1 µM.
For the molecule `CCC(=O)N1CCN(CC(=O)c2ccc(OCCCN3CCC[C@H]3C)cc2)CC1` [Example 144, 1-[4-(2-{4-[3-((R)-2-Methyl-pyrrolidin-1-yl)-propoxy]-phenyl}-2-oxo-ethyl)-piperazin-1-yl]-propan-1-one], the melting point fell in the range of 65 to 70 °C. On human H3 receptor, the Ki was 0.0001 to 0.1 µM. For the same molecule, the Ki in series [1] lay within 0.0001 to 0.1 µM.
Regarding `C[C@@H]1CCCN1CCCOc1ccc(C(=O)CN2CCN(C(=O)c3ccc4ccccc4n3)CC2)cc1` [Example 145, 1-{4-[3-((R)-2-Methyl-pyrrolidin-1-yl)-propoxy]-phenyl}-2-[4-(quinoline-2-carbonyl)-piperazin-1-yl]-ethanone], the melting point fell in the range of 115.4 to 120 °C. The inhibitory constant (Ki) at human H3 receptor was 0.0001 to 0.1 µM. For the same molecule, the Ki in series [1] was 0.0001 to 0.1 µM.
`C[C@@H]1CCCN1CCCOc1ccc(C(=O)CN2CCN(C(=O)C3CCCCC3)CC2)cc1F` [Example 146, 2-(4-Cyclohexanecarbonyl-piperazin-1-yl)-1-{3-fluoro-4-[3-((R)-2-methyl-pyrrolidin-1-yl)-propoxy]-phenyl}-ethanone] came in with a melting point of 232 °C. The same molecule returned a Ki at human H3 receptor of 0.0001 to 0.1 µM. In addition, the Ki in series [1] fell in the range of 0.0001 to 0.1 µM.
`O=C(CN1CCC(F)(F)CC1)c1ccc(OCCCN2CCCCC2)c(Cl)c1` [Example 147, 1-[3-Chloro-4-(3-piperidin-1-yl-propoxy)-phenyl]-2-(4,4-difluoro-piperidin-1-yl)-ethanone] returned a melting point of 122 to 135 °C. The molecule further displayed a Ki at human H3 receptor of 0.101 to 0.5 µM. The Ki in series [1] was > 1 µM.
The molecule `Cc1cc(C(=O)CN2CCN(C(=O)C3CCCCC3)CC2)ccc1OCCCN1CCC[C@H]1C` [Example 148, 2-(4-Cyclohexanecarbonyl-piperazin-1-yl)-1-{3-methyl-4-[3-((R)-2-methyl-pyrrolidin-1-yl)-propoxy]-phenyl}-ethanone] came in with a melting point of 161 to 166.5 °C. On human H3 receptor, this molecule registered a Ki of 0.0001 to 0.1 µM. In addition, the Ki in series [1] lay within 0.0001 to 0.1 µM.
As for `C[C@@H]1CCCN1CCCOc1ccc(C(=O)CN2CCN(C(=O)Oc3ccc(F)cc3)CC2)cc1` [Example 149, 4-(2-{4-[3-((R)-2-Methyl-pyrrolidin-1-yl)-propoxy]-phenyl}-2-oxo-ethyl)-piperazine-1-carboxylic acid 4-fluoro-phenyl ester], the melting point fell in the range of 234 to 236 °C. Further, at human H3 receptor, the Ki lay within 0.0001 to 0.1 µM. Moreover, the Ki in series [1] was 0.0001 to 0.1 µM.
Molecule `Cc1cc(C(=O)CN2CCNC(=O)C2)ccc1OCCCN1CCC[C@H]1C` [Example 150, 4-(2-{3-Methyl-4-[3-((R)-2-methyl-pyrrolidin-1-yl)-propoxy]-phenyl}-2-oxo-ethyl)-piperazin-2-one] displayed a melting point of 79 to 85 °C. The molecule also showed a Ki at human H3 receptor of 0.0001 to 0.1 µM. Also, the Ki in series [1] was 0.101 to 0.5 µM.
In the same order, the values of `C[C@@H]1CCCN1CCCOc1ccc(C(=O)CN2CCN(C(=O)c3ccccc3-c3ccccc3)CC2)cc1` [Example 152, 2-[4-(Biphenyl-2-carbonyl)-piperazin-1-yl]-1-{4-[3-((R)-2-methyl-pyrrolidin-1-yl)-propoxy]-phenyl}-ethanone] are 117 to 119 °C, 0.0001 to 0.1 µM and 0.0001 to 0.1 µM.
`C[C@@H]1CCCN1CCCOc1cccc(C(=O)CN2CCN(C(=O)c3ccccc3)CC2)c1` [Example 153, 2-(4-Benzoyl-piperazin-1-yl)-1-{3-[3-((R)-2-methyl-pyrrolidin-1-yl)-propoxy]-phenyl}-ethanone] displayed a melting point of 125 to 135 °C. In addition, the Ki on human H3 receptor was 0.101 to 0.5 µM. Further, in series [1], the Ki lay in the range of 0.501 to 1 µM.
In turn, `C[C@@H]1CCCN1CCCOc1cccc(C(=O)CN2CCC(F)(F)CC2)c1` [Example 154, 2-(4,4-Difluoro-piperidin-1-yl)-1-{3-[3-((R)-2-methyl-pyrrolidin-1-yl)-propoxy]-phenyl}-ethanone] came in with a melting point of 110 to 120 °C. For the same molecule, the Ki at human H3 receptor lay in the range of 0.0001 to 0.1 µM. In addition, the Ki in series [1] fell in the range of 0.101 to 0.5 µM.
Take `C[C@@H]1CCCN1CCCOc1ccc(C(=O)CN2CCN(C)C(=O)C2)cc1` [Example 155, 1-Methyl-4-(2-{4-[3-((R)-2-methyl-pyrrolidin-1-yl)-propoxy]-phenyl}-2-oxo-ethyl)-piperazin-2-one]: the melting point was in the range of 115 to 120 °C. Besides, on human H3 receptor, the Ki fell in the range of 0.0001 to 0.1 µM. Besides, the Ki in series [1] lay within 0.0001 to 0.1 µM.
On to `CC(=O)N1CCN(CC(=O)c2ccc(OCCCN3CCC[C@H]3C)c(C)c2)CC1` [Example 156, 2-(4-Acetyl-piperazin-1-yl)-1-{3-methyl-4-[3-((R)-2-methyl-pyrrolidin-1-yl)-propoxy]-phenyl}-ethanone], for which the melting point is 120 to 126 °C. Besides, the Ki on human H3 receptor lay in the range of 0.0001 to 0.1 µM. For the same molecule, the Ki in series [1] lay in the range of 0.0001 to 0.1 µM.
`C[C@@H]1CCCN1CCCOc1ccc(C(=O)CN2CCN(C(=O)c3cccc(Cl)c3Cl)CC2)cc1` [Example 157, 2-[4-(2,3-Dichloro-benzoyl)-piperazin-1-yl]-1-{4-[3-((R)-2-methyl-pyrrolidin-1-yl)-propoxy]-phenyl}-ethanone] returned a melting point of 137 to 150 °C. Also, at human H3 receptor, the inhibition constant (Ki) was 0.0001 to 0.1 µM. For the same molecule, the Ki in series [1] was in the range of 0.0001 to 0.1 µM.

The record behind these values is patent US20140296212A1, “SUBSTITUTED PHENOXYPROPYLCYCLOAMINE DERIVATIVES AS HISTAMINE-3 (H3) RECEPTOR LIGANDS” (CEPHALON, INC., priority 2009, published 2014).
